Data on 20 molecules can be found in patent US20080139564A1, “SUBSTITUTED PHENYL PROPYL AMINES AS HISTAMINE H3 RECEPTOR AND SEROTONIN TRANSPORTER MODULATORS” (priority 2006, published 2008).

Assay [1] concerns the target T1, human H3 receptor (Homo sapiens, UniProt Q9Y5N1).
T1 construct: expressed in transfected cells
As to the kind of experiment: Cyclic AMP accumulation (β-galactosidase reporter in SK-N-MC cells). Type of assay: cell-based. How it is done: Sublines of SK-N-MC cells were created that expressed a reporter construct and the human H3 receptor. The reporter gene (β-galactosidase) is under the control of multiple cyclic AMP responsive elements. In 96-well plates, histamine was added directly to the cell media followed 5 min later by an addition of forskolin (5 μM final concentration). When appropriate, antagonists were added 10 min prior to agonist addition. After a 6-h incubation at 37° C., the media was aspirated and the cells washed with 200 μL of phosphate-buffered saline followed by a second aspiration. Cells were lysed with 25 μL 0.1× assay buffer (10 mM Na-phosphate, pH 8, 0.2 mM MgSO4, 0.01 mM MnCl2) and incubated at rt for 10 min. Cells were then incubated for 10 min with 100 μL of 1× assay buffer containing 0.5% Triton and 40 mM β-mercaptoethanol. Color was developed using 25 μL of 1 mg/mL substrate solution (chlorophenolred β-D galactopyranoside; Roche Molecular Biochemicals, Indianapolis, Ind.). Color was quantitated on a microplate reader at absorbance 570 nm. The pA2 values were calculated by Schild regression analysis of the pEC50 values.

Assay [2] addresses T2, human SERT (Homo sapiens, UniProt P31645).
T2 construct: expressed in transfected cells; host or cells: HEK293
The assay is described as follows: Human SERT binding (3H-citalopram displacement, HEK293 membranes). To be noted: 3H-citalopram 3.1 nM, rt for 1 h. As to the method:
Homogenized HEK293 (Human Embryonic Kidney) membranes expressing the human SERT were incubated with ^3H-citalopram (SERT) at rt for 1 h in 50 mM Tris, 120 mM NaCl, 5 mM KCl (pH 7.4). Nonspecific binding was determined in the presence of 10 μM fluoxetine for the SERT. The membranes were washed and the radioactivity was counted as above. Calculations for Ki at the SERT were based on a Kd value for ^3H-citalopram and a ligand concentration of 3.1 nM.

Assay [3] addresses T3, Rat SERT (Rattus norvegicus, UniProt P31652).
T3 construct: A rat brain without cerebellum (Zivic Laboratories, Inc.—Pittsburgh, Pa.) was homogenized; tissue Zivic Laboratories, Inc; host or cells: rat brain without cerebellum
The assay is described as follows: Rat brain SERT binding ([3H]-Citalopram displacement, rat brain membranes). To be noted: 0.6 nM [3H]-Citalopram, 60 min at 25° C. As to the method:
A rat brain without cerebellum (Zivic Laboratories, Inc.—Pittsburgh, Pa.) was homogenized in a 52.6 mM Tris pH 8/126.4 mM NaCl/5.26 mM KCl mixture and centrifuged at 1,000 rpm for 5 min. The supernatant was removed and re-centrifuged at 15,000 rpm for 30 min. Pellets were re-homogenized in a 52.6 mM Tris pH8/126.4 mM NaCl/5.26 mM KCl mixture. Membranes were incubated with 0.6 nM [^3H]-Citalopram plus/minus test compounds for 60 min at 25° C. and harvested by rapid filtration over GF/C glass fiber filters (pretreated with 0.3% polyethylenimine) followed by four washes with ice-cold buffer. Nonspecific binding was defined in the presence of 100 μM fluoxetine.

Assay [4] has as its target T1, human H3 receptor. The assay is described as follows: H3 receptor binding (N-[3H]-α-methylhistamine displacement, SK-N-MC cell membranes). To be noted: 0.8 nM N-[3H]-α-methylhistamine, 60 min at 25° C. How it is done:
Binding of compounds to the cloned human H3 receptor, stably expressed in SK-N-MC cells, was performed (Lovenberg, T. W. et al. J. Pharmacol. Exp. Ther. 2000, 293, 771-778). Briefly, cell pellets from SK-N-MC cells expressing the human H3 receptor were homogenized in 50 mM Tris-HCl/5 mM EDTA and re-centrifuged at 30,000 g for 30 min. Pellets were re-homogenized in 50 mM Tris/5 mM EDTA (pH 7.4). Membranes were incubated with 0.8 nM N—[^3H]-α-methylhistamine plus/minus test compounds for 60 min at 25° C. and harvested by rapid filtration over GF/C glass fiber filters (pretreated with 0.3% polyethylenimine) followed by four washes with ice-cold buffer. Nonspecific binding was defined in the presence of 10 μM histamine.

Like-named read-outs stand apart in the source and are kept apart here.

T2 sequence (P31645 whole entry): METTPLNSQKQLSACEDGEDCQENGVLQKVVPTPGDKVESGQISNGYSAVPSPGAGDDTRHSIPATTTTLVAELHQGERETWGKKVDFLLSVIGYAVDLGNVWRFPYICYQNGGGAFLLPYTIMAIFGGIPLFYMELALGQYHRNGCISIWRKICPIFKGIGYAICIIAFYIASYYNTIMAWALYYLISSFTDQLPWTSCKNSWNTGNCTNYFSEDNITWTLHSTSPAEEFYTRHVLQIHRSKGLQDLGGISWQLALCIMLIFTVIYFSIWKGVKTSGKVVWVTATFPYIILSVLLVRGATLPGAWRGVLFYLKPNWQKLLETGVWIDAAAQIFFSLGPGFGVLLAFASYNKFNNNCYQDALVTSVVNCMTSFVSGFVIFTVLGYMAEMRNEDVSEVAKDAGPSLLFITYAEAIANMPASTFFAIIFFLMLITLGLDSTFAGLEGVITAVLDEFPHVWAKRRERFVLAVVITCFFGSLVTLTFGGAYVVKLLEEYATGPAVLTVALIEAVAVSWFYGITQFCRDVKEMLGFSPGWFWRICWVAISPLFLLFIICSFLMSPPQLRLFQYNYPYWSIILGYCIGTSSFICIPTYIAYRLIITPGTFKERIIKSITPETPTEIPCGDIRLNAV
T3 sequence (P31652 whole entry): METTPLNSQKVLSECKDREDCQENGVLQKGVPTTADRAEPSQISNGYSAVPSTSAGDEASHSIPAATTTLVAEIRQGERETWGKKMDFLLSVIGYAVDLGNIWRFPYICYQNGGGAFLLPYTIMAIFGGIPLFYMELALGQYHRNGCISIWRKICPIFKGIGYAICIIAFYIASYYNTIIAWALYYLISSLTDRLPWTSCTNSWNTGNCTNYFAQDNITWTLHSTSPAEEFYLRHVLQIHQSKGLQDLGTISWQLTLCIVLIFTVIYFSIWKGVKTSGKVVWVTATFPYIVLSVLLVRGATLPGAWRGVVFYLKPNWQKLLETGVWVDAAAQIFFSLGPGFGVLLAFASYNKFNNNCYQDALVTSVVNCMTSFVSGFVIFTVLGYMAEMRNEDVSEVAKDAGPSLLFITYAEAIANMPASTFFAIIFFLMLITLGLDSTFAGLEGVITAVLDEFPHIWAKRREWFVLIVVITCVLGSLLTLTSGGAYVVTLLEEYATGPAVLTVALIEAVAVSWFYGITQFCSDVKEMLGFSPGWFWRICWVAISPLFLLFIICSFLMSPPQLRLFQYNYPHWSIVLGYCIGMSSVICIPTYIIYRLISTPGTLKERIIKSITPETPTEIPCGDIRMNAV
T1 sequence (Q9Y5N1 whole entry): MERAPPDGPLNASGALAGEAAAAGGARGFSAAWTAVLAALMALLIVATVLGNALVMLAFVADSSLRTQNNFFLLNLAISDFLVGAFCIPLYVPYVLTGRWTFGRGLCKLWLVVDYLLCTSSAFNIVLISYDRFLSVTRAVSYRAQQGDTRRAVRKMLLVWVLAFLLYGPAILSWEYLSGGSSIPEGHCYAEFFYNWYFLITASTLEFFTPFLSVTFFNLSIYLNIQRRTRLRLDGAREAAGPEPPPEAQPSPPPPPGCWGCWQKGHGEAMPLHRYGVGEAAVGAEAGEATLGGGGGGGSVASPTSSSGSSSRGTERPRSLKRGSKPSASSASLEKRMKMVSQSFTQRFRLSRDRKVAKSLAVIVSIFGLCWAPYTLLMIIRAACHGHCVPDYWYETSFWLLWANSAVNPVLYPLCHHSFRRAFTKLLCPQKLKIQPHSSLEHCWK

Regarding `COc1cccc(OC(CCN(C)C)c2ccc(OCCCN3CCCCC3)cc2)c1` (stereo not drawn) [Example 13, {3-(3-Methoxy-phenoxy)-3-[4-(3-piperidin-1-yl-propoxy)-phenyl]-propyl}-dimethyl-amine], the Kb in assay [1] (read-out: pA2 (converted)) is 0.617 nM. The figures for the Ki in assay [2], in assay [3] and in assay [4] were 11 nM, 3 nM and 0.7 nM, respectively.
For `CC(C)N1CCC(Oc2ccc(OC(CCN(C)C)c3ccccc3)cc2)CC1` (stereo not drawn) [Example 44, {3-[4-(1-Isopropyl-piperidin-4-yloxy)-phenoxy]-3-phenyl-propyl}-dimethyl-amine], in that order: 0.0977 nM, 90 nM, 18 nM and 0.9 nM.
For `CN(C)CCC(Oc1ccc(C#CCCN2CCCCC2)cc1)c1ccccc1` (stereo not drawn) [Example 57, Dimethyl-{3-phenyl-3-[4-(4-piperidin-1-yl-but-1-ynyl)-phenoxy]-propyl}-amine], in that order: 2.19 nM, 172 nM, 22 nM and 2 nM.
Consider `CN(C)CCC(Nc1ccccc1)c1ccc(OCCCN2CCCCC2)cc1` (stereo not drawn) [Example 66, N^3,N^3-Dimethyl-N^1-phenyl-1-[4-(3-piperidin-1-yl-propoxy)-phenyl]-propane-1,3-diamine], for which the Kb in assay [1] (read-out: pA2 (converted)) is 3.98 nM. For the same molecule, the Ki in assay [2] is 151 nM; in assay [3], 15 nM; in assay [4], 3 nM.
For `CC(C)N1CCN(C(=O)c2ccc(C(CCN(C)C)Oc3ccc(Cl)c(Cl)c3)cc2)CC1` (stereo not drawn) [Example 40, {4-[1-(3,4-Dichloro-phenoxy)-3-dimethylamino-propyl]-phenyl}-(4-isopropyl-piperazin-1-yl)-methanone], in that order: 2.19 nM, 7 nM, 18 nM and 2 nM.
For `CN(C)CCC(Oc1ccccc1)c1ccc(C#CCCN2CCCCC2)cc1` (stereo not drawn) [Example 21, Dimethyl-{3-phenoxy-3-[4-(4-piperidin-1-yl-but-1-ynyl)-phenyl]-propyl}-amine], in that order: 0.661 nM, 29 nM, 5 nM and 1.2 nM.
For `CN(C)CCC(Oc1cccc(Br)c1)c1ccc(OCCCN2CCCCC2)cc1` (stereo not drawn) [Example 15, {3-(3-Bromo-phenoxy)-3-[4-(3-piperidin-1-yl-propoxy)-phenyl]-propyl}-dimethyl-amine], the Kb in assay [1] (Schild regression analysis of the pEC50 values, histamine agonist, forskolin 5 μM, SK-N-MC reporter cells, read-out: pA2 (converted)) is 1.58 nM. The Ki was determined as 4 nM in assay [2], 2 nM in assay [3] and 1 nM in assay [4].
With `CN(C)CCC(Oc1ccc(OCCCN2CCCCC2)cc1)c1ccc(Cl)cc1` (stereo not drawn) [Example 43, {3-(4-Chloro-phenyl)-3-[4-(3-piperidin-1-yl-propoxy)-phenoxy]-propyl}-dimethyl-amine], in assay [1] (read-out: pA2 (converted)), the Kb is 1.7 nM. For the same molecule, the results for the Ki in assay [2], in assay [3] and in assay [4] were 163 nM, 23 nM and 1 nM, respectively.
For `CC(C)N1CCN(C(=O)c2ccc(C(CCN(C)C)Oc3ccccc3)cc2)CC1` (stereo not drawn) [Example 38, [4-(3-Dimethylamino-1-phenoxy-propyl)-phenyl]-(4-isopropylpiperazin-1-yl)-methanone], in that order: 0.214 nM, 245 nM, 161 nM and 0.7 nM.
For the molecule `CN(C)CCC(Oc1ccccc1)c1ccc(OCCCN2CCCCC2)cc1` (stereo not drawn) [Example 1, Dimethyl-[3-phenoxy-3-[4-(3-piperidin-1-yl-propoxy)-phenyl]-propyl]-amine], the Kb in assay [1] is 0.468 nM. The Ki in assay [2] is 26 nM; in assay [3] it was 1 nM; in assay [4] it was 0.7 nM.
Take `CC(C)N1CCN(Cc2ccc(C(CCN(C)C)Oc3ccc(Cl)c(Cl)c3)cc2)CC1` (stereo not drawn) [Example 47, {3-(3,4-Dichloro-phenoxy)-3-[4-(4-isopropyl-piperazin-1-ylmethyl)phenyl]-propyl}-dimethyl-amine]: the Kb in assay [1] (read-out: pA2 (converted)) was 11.5 nM. In addition, the Ki came out at 6 nM in assay [2], 6 nM in assay [3] and 5 nM in assay [4].
As to `CN(C)CCC(Oc1cccnc1)c1ccc(OCCCN2CCCCC2)cc1` (stereo not drawn) [Example 18, Dimethyl-[3-[4-(3-piperidin-1-yl-propoxy)-phenyl]-3-(pyridin-3-yloxy)-propyl]-amine], the Kb in assay [1] (read-out: pA2 (converted)) was 0.0631 nM. The Ki in assay [2] stood at 91 nM; in assay [3], 9 nM; in assay [4], 0.3 nM.
For `NCCC(Oc1ccc(C(F)(F)F)cc1)c1ccc(OCCCN2CCCCC2)cc1` (stereo not drawn) [Example 69, 3-[4-(3-Piperidin-1-yl-propoxy)-phenyl]-3-(4-trifluoromethylphenoxy)-propylamine], in that order: 7.94 nM, 1 nM, 5 nM and 8 nM.
For the molecule `CCC(CC)N1CCN(C(=O)c2ccc(C(CCN(C)C)Oc3ccc(C(F)(F)F)cc3)cc2)CC1` (stereo not drawn) [Example 53, {4-[3-Dimethylamino-1-(4-trifluoromethyl-phenoxy)-propyl]-phenyl}-[4-(1-ethyl-propyl)-piperazin-1-yl]-methanone], in assay [1] (read-out: pA2 (converted)), the Kb is 2.45 nM. Further, the Ki is 102 nM in assay [3] and 8 nM in assay [4].
As to `CN(C)CCC(Oc1ccc2[nH]ccc2c1)c1ccc(OCCCN2CCCCC2)cc1` (stereo not drawn) [Example 19, {3-(1H-Indol-5-yloxy)-3-[4-(3-piperidin-1-yl-propoxy)-phenyl]-propyl}-dimethyl-amine], the Kb in assay [1] (read-out: pA2 (converted)) is 0.977 nM. For the same molecule, the Ki came to 44 nM in assay [3] and 1 nM in assay [4].
For `CN(C)CCC(Cc1ccccc1)c1ccc(OCCCN2CCCCC2)cc1` (stereo not drawn) [Example 65, Dimethyl-{4-phenyl-3-[4-(3-piperidin-1-yl-propoxy)-phenyl]-butyl}-amine], in assay [1] (read-out: pA2 (converted)), the Kb is 0.251 nM. The Ki in assay [2] is 14 nM; in assay [3], 1 nM; in assay [4], 0.8 nM.
Take `CNCCC(Oc1ccc(C(F)(F)F)cc1)c1ccc(OCCCN2CCCCC2)cc1` (stereo not drawn) [Example 70, Methyl-[3-[4-(3-piperidin-1-yl-propoxy)-phenyl]-3-(4-trifluoromethyl-phenoxy)-propyl]-amine]: in assay [1], the Kb is 3.98 nM. In addition, the figures for the Ki in assay [2], in assay [3] and in assay [4] were 2 nM, 3 nM and 1 nM, respectively.
Take `CC(C)N1CCN(Cc2ccc(C(CCN(C)C)Oc3ccc(C(F)(F)F)cc3)cc2)CC1` (stereo not drawn) [Example 55, [3-[4-(4-Isopropyl-piperazin-1-ylmethyl)-phenyl]-3-(4-trifluoromethyl-phenoxy)-propyl]-dimethyl-amine]: in assay [1] (read-out: pA2 (converted)), the Kb was 9.33 nM. Besides, the results for the Ki in assay [3] and in assay [4] were 27 nM and 2 nM, respectively.
For `CN(C)CCC(Oc1ccc(C#CCCN2CCCCC2)cc1)c1ccc(C(F)(F)F)cc1` (stereo not drawn) [Example 60, Dimethyl-[3-[4-(4-piperidin-1-yl-but-1-ynyl)-phenoxy]-3-(4-trifluoromethyl-phenyl)-propyl]-amine], in that order: 17.8 nM, 168 nM and 24 nM.
For `CCC(CC)N1CCN(Cc2ccc(C(CCN(C)C)Oc3ccc(C(F)(F)F)cc3)cc2)CC1` (stereo not drawn) [Example 54, [3-{4-[4-(1-Ethyl-propyl)-piperazin-1-ylmethyl]-phenyl}-3-(4-trifluoromethyl-phenoxy)-propyl]-dimethyl-amine], in that order: 18.6 nM, 37 nM and 5 nM.
